Tests used:
[1] = test system: RCK8; assay: Antiproliferative activity against human RCK8 cells assessed as inhibition of cell viability incubated for 3 to 5 days by Celltiter-Glo luminescent assay; assay type: functional, cell-based
[2] = test system: NCI-H929; assay: Antiproliferative activity against human NCI-H929 cells assessed as inhibition of cell viability incubated for 3 to 5 days by Celltiter-Glo luminescent assay; assay type: functional, cell-based
[3] = molecular target: cAMP-dependent protein kinase (PKA) (Homo sapiens, UniProt P22694+P17612+P22612); assay: Inhibition of PKA (unknown origin); assay type: protein assay
[4] = molecular target: cGMP-dependent protein kinase 1 (Homo sapiens, UniProt Q13976); assay: Inhibition of PKG1alpha (unknown origin)
[5] = test system: MDA-MB-157; assay: Antiproliferative activity against human MDA-MB-157 cells assessed as inhibition of cell viability incubated for 3 to 5 days by Celltiter-Glo luminescent assay; assay type: functional, cell-based
[6] = test system: NCI-H1373; assay: Antiproliferative activity against human NCI-H1373 cells assessed as inhibition of cell viability incubated for 3 to 5 days by Celltiter-Glo luminescent assay; assay type: functional, cell-based
[7] = molecular target: Platelet-derived growth factor receptor alpha (Homo sapiens, UniProt P16234); assay: Inhibition of PDGFRalpha (unknown origin)
[8] = molecular target: Serine/threonine-protein kinase pim-2 (Homo sapiens, UniProt Q9P1W9); assay: Inhibition of Pim2 (unknown origin)
Sequence of Serine/threonine-protein kinase pim-2 (Q9P1W9 whole entry): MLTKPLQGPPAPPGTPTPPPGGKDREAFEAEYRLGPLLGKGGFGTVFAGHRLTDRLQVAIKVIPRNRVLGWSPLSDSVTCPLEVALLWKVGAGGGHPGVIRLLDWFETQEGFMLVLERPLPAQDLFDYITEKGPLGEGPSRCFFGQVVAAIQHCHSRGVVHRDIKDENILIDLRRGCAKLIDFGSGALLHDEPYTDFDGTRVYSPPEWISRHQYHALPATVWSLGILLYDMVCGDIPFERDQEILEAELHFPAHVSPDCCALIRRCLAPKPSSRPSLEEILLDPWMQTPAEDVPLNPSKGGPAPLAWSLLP

[9] = test system: WM 266-4; assay: Antiproliferative activity against human WM266-4 cells assessed as inhibition of cell viability incubated for 3 to 5 days by Celltiter-Glo luminescent assay; assay type: functional, cell-based
[10] = molecular target: Bromodomain testis-specific protein (Homo sapiens, UniProt Q58F21); assay: Inhibition of BRDT (unknown origin)
[11] = test system: OCI-AML2; assay: Antiproliferative activity against human OCI-AML2 cells assessed as inhibition of cell viability incubated for 3 to 5 days by Celltiter-Glo luminescent assay; assay type: functional, cell-based
[12] = Tmax in CB17 SCID mouse xenografted with LuCaP-77 CR cell at 100 mg/kg, ip administered for 7 days; assay type: ADME, organism-based; conditions: in vivo, time 7 day
[13] = molecular target: Histone acetyltransferase p300 (Homo sapiens, UniProt Q09472)
[14] = molecular target: Platelet-derived growth factor receptor beta (Homo sapiens, UniProt P09619); assay: Inhibition of PDGFRbeta (unknown origin)
[15] = test system: CA46; assay: Antiproliferative activity against human CA46 cells assessed as inhibition of cell viability incubated for 3 to 5 days by Celltiter-Glo luminescent assay; assay type: functional, cell-based
[16] = test system: OCI-Ly18; assay: Antiproliferative activity against human OCI-Ly18 cells assessed as inhibition of cell viability incubated for 3 to 5 days by Celltiter-Glo luminescent assay; assay type: functional, cell-based
[17] = test system: U-937; assay: Antiproliferative activity against human U937 cells assessed as inhibition of cell viability incubated for 3 to 5 days by Celltiter-Glo luminescent assay; assay type: functional, cell-based
[18] = test system: NCI-H1930; assay: Antiproliferative activity against human NCI-H1930 cells assessed as inhibition of cell viability incubated for 3 to 5 days by Celltiter-Glo luminescent assay; assay type: functional, cell-based
[19] = test system: DOHH-2; assay: Antiproliferative activity against human DOHH-2 cells assessed as inhibition of cell viability incubated for 3 to 5 days by Celltiter-Glo luminescent assay; assay type: functional, cell-based
[20] = molecular target: Serine/threonine-protein kinase TBK1 (Homo sapiens, UniProt Q9UHD2); assay: Inhibition of TBK1 (unknown origin)
[21] = molecular target: Insulin-like growth factor 1 receptor (Homo sapiens, UniProt P08069); assay: Inhibition of IGF1R (unknown origin)
Sequence of Insulin-like growth factor 1 receptor (P08069 31-736 limits assumed): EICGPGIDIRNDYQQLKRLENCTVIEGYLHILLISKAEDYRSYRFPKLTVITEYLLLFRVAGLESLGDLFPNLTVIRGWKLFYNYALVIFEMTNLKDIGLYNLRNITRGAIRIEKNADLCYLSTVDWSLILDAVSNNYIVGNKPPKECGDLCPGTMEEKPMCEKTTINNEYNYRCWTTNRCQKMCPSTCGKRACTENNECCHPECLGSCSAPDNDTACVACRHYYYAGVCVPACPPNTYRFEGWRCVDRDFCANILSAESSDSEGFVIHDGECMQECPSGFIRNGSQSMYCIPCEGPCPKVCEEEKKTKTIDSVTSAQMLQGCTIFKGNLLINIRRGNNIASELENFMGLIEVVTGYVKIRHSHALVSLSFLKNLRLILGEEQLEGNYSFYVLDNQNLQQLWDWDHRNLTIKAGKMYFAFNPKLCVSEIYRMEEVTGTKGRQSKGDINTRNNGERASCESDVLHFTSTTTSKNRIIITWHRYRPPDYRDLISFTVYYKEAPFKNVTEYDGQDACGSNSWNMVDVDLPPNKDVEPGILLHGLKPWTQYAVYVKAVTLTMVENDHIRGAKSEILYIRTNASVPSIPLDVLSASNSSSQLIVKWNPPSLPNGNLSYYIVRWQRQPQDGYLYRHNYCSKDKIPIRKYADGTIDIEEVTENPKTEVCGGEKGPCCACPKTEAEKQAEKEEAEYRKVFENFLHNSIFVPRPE
Sequence of Insulin-like growth factor 1 receptor (P08069 741-1367 limits assumed): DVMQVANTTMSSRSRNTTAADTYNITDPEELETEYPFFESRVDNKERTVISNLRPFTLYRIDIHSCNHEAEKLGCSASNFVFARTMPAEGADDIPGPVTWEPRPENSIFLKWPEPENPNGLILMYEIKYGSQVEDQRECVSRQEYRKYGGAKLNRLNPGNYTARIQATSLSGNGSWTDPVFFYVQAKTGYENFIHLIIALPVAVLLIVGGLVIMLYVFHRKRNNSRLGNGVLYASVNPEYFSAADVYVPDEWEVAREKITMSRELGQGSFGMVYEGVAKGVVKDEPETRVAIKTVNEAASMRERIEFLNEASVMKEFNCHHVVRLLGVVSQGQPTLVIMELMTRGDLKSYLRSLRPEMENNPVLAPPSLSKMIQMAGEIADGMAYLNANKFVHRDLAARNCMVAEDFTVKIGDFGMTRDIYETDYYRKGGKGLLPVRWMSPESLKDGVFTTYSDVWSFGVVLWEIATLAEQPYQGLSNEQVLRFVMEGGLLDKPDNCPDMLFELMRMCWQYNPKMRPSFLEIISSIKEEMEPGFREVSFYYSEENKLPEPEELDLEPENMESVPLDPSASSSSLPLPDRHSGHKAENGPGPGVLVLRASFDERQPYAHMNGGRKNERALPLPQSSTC

[22] = Tmax in CB17 SCID mouse xenografted with LuCaP-77 CR cell at 50 mg/kg, ip administered for 7 days; assay type: ADME, organism-based; conditions: in vivo, time 7 day
[23] = test system: U2932; assay: Antiproliferative activity against human U2932 cells assessed as inhibition of cell viability incubated for 3 to 5 days by Celltiter-Glo luminescent assay; assay type: functional, cell-based
[24] = Cmax in CB17 SCID mouse xenografted with LuCaP-77 CR cell at 50 mg/kg, ip administered for 7 days; assay type: ADME, organism-based; conditions: in vivo, time 7 day
[25] = test system: CWR22R; assay: Antiproliferative activity against human 22Rv1 cells assessed as inhibition of cell viability incubated for 3 to 5 days by Celltiter-Glo luminescent assay; assay type: functional, cell-based
[26] = molecular target: Mitogen-activated protein kinase 8 (Homo sapiens, UniProt P45983); assay: Inhibition of JNK1 (unknown origin)
Sequence of Mitogen-activated protein kinase 8 (P45983 whole entry): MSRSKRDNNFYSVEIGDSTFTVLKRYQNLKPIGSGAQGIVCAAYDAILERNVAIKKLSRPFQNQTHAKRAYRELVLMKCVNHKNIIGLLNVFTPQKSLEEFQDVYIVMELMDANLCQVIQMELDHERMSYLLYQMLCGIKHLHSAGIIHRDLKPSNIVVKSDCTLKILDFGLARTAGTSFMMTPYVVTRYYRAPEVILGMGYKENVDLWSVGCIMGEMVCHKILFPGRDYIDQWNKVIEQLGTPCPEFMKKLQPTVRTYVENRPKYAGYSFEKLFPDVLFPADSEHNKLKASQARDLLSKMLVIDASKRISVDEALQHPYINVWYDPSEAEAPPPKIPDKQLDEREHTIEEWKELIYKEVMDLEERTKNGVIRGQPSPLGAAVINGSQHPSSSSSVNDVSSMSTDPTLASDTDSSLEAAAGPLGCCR

[27] = AUC in CB17 SCID mouse xenografted with LuCaP-77 CR cell at 200 mg/kg, ip administered for 7 days; assay type: ADME, organism-based; conditions: in vivo, time 7 day
[28] = test system: HT; assay: Antiproliferative activity against human HT cells assessed as inhibition of cell viability incubated for 3 to 5 days by Celltiter-Glo luminescent assay; assay type: functional, cell-based
[29] = molecular target: Death-associated protein kinase 3 (Homo sapiens, UniProt O43293); assay: Inhibition of ZIPK (unknown origin)
Sequence of Death-associated protein kinase 3 (O43293 whole entry): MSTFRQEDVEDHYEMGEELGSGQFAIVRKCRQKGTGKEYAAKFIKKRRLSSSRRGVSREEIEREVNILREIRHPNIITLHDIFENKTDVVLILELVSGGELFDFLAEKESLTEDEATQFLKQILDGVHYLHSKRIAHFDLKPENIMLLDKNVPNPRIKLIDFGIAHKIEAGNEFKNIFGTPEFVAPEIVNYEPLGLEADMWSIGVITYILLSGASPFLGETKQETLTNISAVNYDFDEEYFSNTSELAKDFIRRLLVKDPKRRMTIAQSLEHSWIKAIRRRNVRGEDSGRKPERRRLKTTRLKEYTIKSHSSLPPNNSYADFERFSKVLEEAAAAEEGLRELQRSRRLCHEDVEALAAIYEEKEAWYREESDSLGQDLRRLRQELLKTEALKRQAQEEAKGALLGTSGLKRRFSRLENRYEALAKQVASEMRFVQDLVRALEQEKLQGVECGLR

[30] = molecular target: Proto-oncogene tyrosine-protein kinase receptor Ret (Homo sapiens, UniProt P07949); assay: Inhibition of Ret (unknown origin)
[31] = test system: NCI-H187; assay: Antiproliferative activity against human NCI-H187 cells assessed as inhibition of cell viability incubated for 3 to 5 days by Celltiter-Glo luminescent assay; assay type: functional, cell-based
[32] = molecular target: Calcium/calmodulin-dependent protein kinase kinase 2 (Homo sapiens, UniProt Q96RR4); assay: Inhibition of CAMKK2 (unknown origin)
Sequence of Calcium/calmodulin-dependent protein kinase kinase 2 (Q96RR4 whole entry): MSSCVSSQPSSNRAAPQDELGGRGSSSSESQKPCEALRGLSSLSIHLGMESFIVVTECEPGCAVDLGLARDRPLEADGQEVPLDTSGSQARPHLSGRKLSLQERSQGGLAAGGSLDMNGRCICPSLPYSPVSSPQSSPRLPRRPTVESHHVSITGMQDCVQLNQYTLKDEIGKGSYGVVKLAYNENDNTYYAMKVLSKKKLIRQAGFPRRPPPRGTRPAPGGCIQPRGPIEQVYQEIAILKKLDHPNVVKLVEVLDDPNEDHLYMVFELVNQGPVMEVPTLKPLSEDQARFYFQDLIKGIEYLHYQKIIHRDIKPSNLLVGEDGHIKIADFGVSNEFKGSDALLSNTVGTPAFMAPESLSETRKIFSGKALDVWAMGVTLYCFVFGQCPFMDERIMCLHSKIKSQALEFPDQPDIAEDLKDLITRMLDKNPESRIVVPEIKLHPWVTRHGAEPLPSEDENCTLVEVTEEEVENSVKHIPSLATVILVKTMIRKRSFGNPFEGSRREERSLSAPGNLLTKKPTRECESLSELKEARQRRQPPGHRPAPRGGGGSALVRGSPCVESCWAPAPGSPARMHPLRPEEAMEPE

[33] = test system: VCaP; assay: Antiproliferative activity against human VCaP cells assessed as inhibition of cell viability incubated for 3 to 5 days by Celltiter-Glo luminescent assay; assay type: functional, cell-based
[34] = test system: OCI-Ly1; assay: Antiproliferative activity against human OCI-Ly1 cells assessed as inhibition of cell viability incubated for 3 to 5 days by Celltiter-Glo luminescent assay; assay type: functional, cell-based
[35] = molecular target: Mitogen-activated protein kinase kinase kinase kinase 4 (Homo sapiens, UniProt O95819); assay: Inhibition of MAP4K4 (unknown origin)
[36] = molecular target: Dual specificity tyrosine-phosphorylation-regulated kinase 1B (Homo sapiens, UniProt Q9Y463); assay: Inhibition of DYRK1B (unknown origin)
Sequence of Dual specificity tyrosine-phosphorylation-regulated kinase 1B (Q9Y463 whole entry): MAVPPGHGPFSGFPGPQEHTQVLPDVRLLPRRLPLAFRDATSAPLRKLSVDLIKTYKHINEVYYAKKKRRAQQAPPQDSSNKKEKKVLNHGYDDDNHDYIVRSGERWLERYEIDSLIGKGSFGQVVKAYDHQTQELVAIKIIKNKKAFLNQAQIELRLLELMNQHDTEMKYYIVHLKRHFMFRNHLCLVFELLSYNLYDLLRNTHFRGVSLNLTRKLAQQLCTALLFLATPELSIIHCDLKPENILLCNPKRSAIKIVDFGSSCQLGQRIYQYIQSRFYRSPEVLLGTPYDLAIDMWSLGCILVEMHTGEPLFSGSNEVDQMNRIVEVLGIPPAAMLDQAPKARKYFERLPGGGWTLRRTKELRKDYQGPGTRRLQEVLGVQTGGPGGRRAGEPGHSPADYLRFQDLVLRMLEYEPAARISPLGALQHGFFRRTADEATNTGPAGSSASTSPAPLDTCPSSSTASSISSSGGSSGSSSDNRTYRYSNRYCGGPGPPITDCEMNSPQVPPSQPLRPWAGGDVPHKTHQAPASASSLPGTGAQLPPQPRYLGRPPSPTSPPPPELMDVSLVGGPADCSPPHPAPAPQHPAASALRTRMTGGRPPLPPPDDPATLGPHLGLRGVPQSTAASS

[37] = test system: HCC1806; assay: Antiproliferative activity against human HCC1806 cells assessed as inhibition of cell viability incubated for 3 to 5 days by Celltiter-Glo luminescent assay; assay type: functional, cell-based
[38] = test system: NCI-H727; assay: Antiproliferative activity against human NCI-H727 cells assessed as inhibition of cell viability incubated for 3 to 5 days by Celltiter-Glo luminescent assay; assay type: functional, cell-based
[39] = test system: HCC70; assay: Antiproliferative activity against human HCC70 cells assessed as inhibition of cell viability incubated for 3 to 5 days by Celltiter-Glo luminescent assay; assay type: functional, cell-based
[40] = molecular target: Tyrosine-protein kinase JAK3 (Homo sapiens, UniProt P52333); assay: Inhibition of JAK3 (unknown origin)
Sequence of Tyrosine-protein kinase JAK3 (P52333 whole entry): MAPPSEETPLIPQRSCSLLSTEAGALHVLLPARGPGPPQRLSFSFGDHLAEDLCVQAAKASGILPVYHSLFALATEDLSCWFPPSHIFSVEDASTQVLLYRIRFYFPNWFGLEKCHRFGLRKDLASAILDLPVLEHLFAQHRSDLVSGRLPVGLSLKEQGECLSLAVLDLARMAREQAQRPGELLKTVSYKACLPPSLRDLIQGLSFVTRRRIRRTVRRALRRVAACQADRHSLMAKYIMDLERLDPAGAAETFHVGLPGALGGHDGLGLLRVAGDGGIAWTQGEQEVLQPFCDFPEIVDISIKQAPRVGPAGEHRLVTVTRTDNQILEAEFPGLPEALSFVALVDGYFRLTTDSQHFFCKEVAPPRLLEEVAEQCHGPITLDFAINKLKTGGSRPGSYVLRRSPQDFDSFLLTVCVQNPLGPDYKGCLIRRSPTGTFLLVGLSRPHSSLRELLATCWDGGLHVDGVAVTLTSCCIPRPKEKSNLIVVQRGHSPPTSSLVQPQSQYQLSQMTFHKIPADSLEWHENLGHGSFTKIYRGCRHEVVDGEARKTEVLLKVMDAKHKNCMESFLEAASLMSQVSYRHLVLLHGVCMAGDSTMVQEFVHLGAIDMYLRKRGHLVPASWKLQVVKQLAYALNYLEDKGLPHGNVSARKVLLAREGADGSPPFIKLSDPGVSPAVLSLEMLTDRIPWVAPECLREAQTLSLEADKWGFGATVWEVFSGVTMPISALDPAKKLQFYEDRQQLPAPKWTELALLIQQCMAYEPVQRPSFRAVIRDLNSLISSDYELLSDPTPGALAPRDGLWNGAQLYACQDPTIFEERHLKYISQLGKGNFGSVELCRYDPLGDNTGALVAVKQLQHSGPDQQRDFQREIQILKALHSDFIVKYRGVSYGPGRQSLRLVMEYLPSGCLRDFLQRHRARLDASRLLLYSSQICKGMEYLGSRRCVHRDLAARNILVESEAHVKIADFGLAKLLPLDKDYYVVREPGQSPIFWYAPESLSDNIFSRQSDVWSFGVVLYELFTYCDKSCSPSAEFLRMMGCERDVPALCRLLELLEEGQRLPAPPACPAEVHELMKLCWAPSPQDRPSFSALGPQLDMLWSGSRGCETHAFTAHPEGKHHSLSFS

CNC(=O)Nc1ccc2c(c1)CC[C@@]21OC(=O)N(CC(=O)N(Cc2ccc(F)cc2)[C@@H](C)C(F)(F)F)C1=O [A-485]
EC50 [1]: 0.59 µM | EC50 [2]: 0.33 µM | IC50 [3]: > 10 µM | IC50 [4]: > 10 µM | EC50 [5]: 4.59 µM | EC50 [6]: 2.34 µM | IC50 [7]: > 10 µM | IC50 [8]: > 10 µM | EC50 [9]: 1.91 µM | IC50 [10]: > 10 µM | EC50 [11]: 2.03 µM | Tmax [12]: 3 h | T1/2 [13]: 8.85 min | IC50 [14]: > 10 µM | EC50 [15]: 0.48 µM | EC50 [16]: 0.32 µM | EC50 [17]: > 10 µM | EC50 [18]: > 10 µM | EC50 [19]: 0.75 µM | IC50 [20]: > 10 µM | IC50 [21]: > 10 µM | Tmax [22]: 3 h | EC50 [23]: 2.46 µM | Cmax [24]: 14700 ng/mL | EC50 [25]: 0.32 µM | IC50 [26]: > 10 µM | AUC at 168 h [27]: 2950 µg·h/mL | EC50 [28]: > 10 µM | IC50 [29]: > 10 µM | IC50 [30]: > 10 µM | EC50 [31]: > 10 µM | IC50 [32]: > 10 µM | EC50 [33]: 0.04 µM | EC50 [34]: 0.94 µM | IC50 [35]: > 10 µM | IC50 [36]: > 10 µM | EC50 [37]: 2.95 µM | EC50 [38]: 6.63 µM | EC50 [39]: > 10 µM | IC50 [40]: > 10 µM

Source: ChEMBL document CHEMBL5649168, “Discovery of a selective catalytic p300/CBP inhibitor that targets lineage-specific tumours” (Nature, 2017)
